{"source": "patent EP4810052A2", "about": "“HCRHR2 SELECTIVE POLYPEPTIDES” (Gubra A/S, priority 2023, dated 2026)", "test": "Myocardial ischemia (LAD ligation) model in rats", "format": "in vivo", "conditions": "MI rats; for Heart rate / Mean blood pressure: anesthetized, prior to termination", "description": "Wistar male rats were obtained from JanVier (Janvier Labs, France) at 6 weeks of age. The animals were pair-housed. During the study, animals had free access to food (RM1, SDS Dietex) and drinking water ad libitum.\nMyocardial infarction (MI) was induced by chronic left anterior descending coronary artery (LAD) ligation performed at day zero. Sham operated animals were subjected to the same protocol; after the left lateral thoracotomy exposing the heart, the rib cage was closed without passing the suture thread around LAD.\nTreatments started at 1-month post-MI, in order to assess the potential beneficial effect of the candidate compound to prevent the progression of the pathology.\nRats underwent transthoracic echocardiographic (ECG) examination in order to assess cardiac morphology and function in a noninvasively way. Echocardiography was performed by using a digital ultrasound system (Vivid S60, GE Medical Systems) equipped with a 12 MHz phased-array and an 18 MHz linear-array transducer. Standard B-mode (Brightness-mode) and M-mode (Motion-mode) images of the heart were obtained in the two-dimensional (2D) parasternal long axis view (PSLA). LV parameters were measured and calculated as the mean of 3 consecutive cardiac cycles by a single blinded trained operator.\nA total of four ECG exams were performed for all the animals. The first examination took place 5-7 days after surgery and was used as a control of the surgery. The second ECG was performed 1 month after LAD ligation. Based on the second ECG, MI rats included were randomized in […] homogeneous groups based on the left ventricular internal diameter in diastole (LVIDd), telediastolic (TeleD) volume, ejection fraction (EF) and fractional shortening (FS): Group 1 (Sham): n=10, group 2 (MI/Vehicle): n=19, group 3 (MI/Atenolol-Lisinopril-Spironolactone (A+L+S) 1-1-10 mg/kg): n=19, group 4 (MI/test peptide 30 nmol/kg): n=19 and group 5 (MI/test peptide 100 nmol/kg): n=19. Vehicle and test peptide were administrated daily SC and A+L+S were dosed through drinking water. The third and fourth ECG were done 2 and 3 months after surgery, and were used to assess the cardiac remodelling and function following MI. At the fourth ECG isovolumic relaxation time (IVRT) and cardiac output (CO) were also assessed by Doppler-echocardiography.\nPrior to termination, hemodynamic measurements were performed under anaesthesia using a fluid-filled catheter (BLPR and TBM4m, World Precision Instrument). At termination, left soleus was dissected and weighed.\nStatistical analyses were performed with the Graphpad 9 software. If values were normally distributed, a parametric analysis was performed. If samples were drawn from non-normal populations, a non-parametric analysis was performed. First, differences were assessed between Sham and MI/Vehicle using a t-test. Then, the treated MI groups were compared to MI/Vehicle using a one-way ANOVA followed by the appropriate post-hoc test.", "key": {"[1]": {"conditions": "2 months of treatment, 30 nmol/kg, ± SEM"}, "[2]": {"conditions": "2 months of treatment, 100 nmol/kg, ± SEM"}, "[3]": {"conditions": "2 months of treatment, compared to MI/Vehicle"}}, "note": "Starred links: 1 amine or outer side, 2 acyl side, 3 side chain; linkers in the order of their positions; H or OH if unused. Residues, ends and D or L forms follow the SMILES beside them. Groups on a side chain read outwards from the residue. *: point of attachment. C20 diacid = O=C(O)CCCCCCCCCCCCCCCCCCC(=O)*; γGlu = O=C(O)[C@H](CCC(=O)[*:2])N[*:1]; AEEA = NCCOCCOCC(=O)O", "data": [{"compound": "CC[C@H](C)[C@H](N)C(=O)N[C@H](C(=O)N[C@@H](CC(C)C)C(=O)N[C@@H](CO)C(=O)N[C@@H](CC(C)C)C(=O)N[C@@H](CC(=O)O)C(=O)N[C@H](C(=O)N1CCC[C@H]1C(=O)N[C@H](C(=O)NCC(=O)N[C@@H](CC(C)C)C(=O)N[C@@H](CC(C)C)C(=O)N[C@@H](CCC(N)=O)C(=O)N[C@H](C(=O)N[C@@H](CC(C)C)C(=O)N[C@@H](CC(C)C)C(=O)N[C@@H](CCC(=O)O)C(=O)N[C@@H](CCC(N)=O)C(=O)N[C@@H](C)C(=O)N[C@@H](CCCNC(=N)N)C(=O)N[C@@H](C)C(=O)N[C@@H](CCCNC(=N)N)C(=O)N[C@@H](C)C(=O)N[C@@H](C)C(=O)N[C@@H](CCCNC(=N)N)C(=O)N[C@@H](CCC(=O)O)C(=O)N[C@@H](CCC(N)=O)C(=O)N[C@@H](C)C(=O)N[C@@H](CCCCNC(=O)COCCOCCNC(=O)COCCOCCNC(=O)CC[C@H](NC(=O)CC[C@H](NC(=O)CCCCCCCCCCCCCCCCCCC(=O)O)C(=O)O)C(=O)O)C(=O)N[C@H](C(=O)N[C@@H](CC(N)=O)C(=O)N[C@@H](C)C(=O)N[C@@H](CCC(=O)O)C(=O)N[C@H](C(=O)N[C@@H](CC(C)C)C(=O)N[C@@H](C)C(=O)N[C@@H](CCC(=O)O)C(=O)N[C@H](C(N)=O)C(C)C)[C@@H](C)CC)[C@@H](C)O)[C@@H](C)CC)[C@@H](C)CC)C(C)C)C(C)C", "note": "[SEQ ID NO: 3] (H-IVLSLDVPIGLLQILLEQARARAAREQAK([AEEA-AEEA-γGlu-γGlu-C20 diacid])TNAEILAEV-NH2)", "values": [{"measurement": "Body weight at termination", "setting": "30 nmol/kg, ± SEM", "value": "550.1 ± 10.6", "unit": "g"}, {"measurement": "Left soleus mass", "setting": "30 nmol/kg, ± SEM", "value": "274.9 ± 9.9", "unit": "mg"}, {"measurement": "Body weight at termination", "setting": "100 nmol/kg, ± SEM", "value": "551.6 ± 6.7", "unit": "g"}, {"measurement": "Left soleus mass", "setting": "100 nmol/kg, ± SEM", "value": "275.2 ± 6.8", "unit": "mg"}, {"measurement": "CO", "setting": "[1]", "value": "129.0 ± 5.1", "unit": "mL/min"}, {"measurement": "EF B-mode", "setting": "[1]", "value": "45.52 ± 1.2", "unit": "%"}, {"measurement": "EF M-mode", "setting": "[1]", "value": "46.42 ± 1.2", "unit": "%"}, {"measurement": "FS", "setting": "[1]", "value": "20.63 ± 0.5", "unit": "%"}, {"measurement": "IVRT", "setting": "[1]", "value": "21.81 ± 0.5", "unit": "ms"}, {"measurement": "LVIDd", "setting": "[1]", "value": "10.86 ± 0.2", "unit": "mm"}, {"measurement": "LVIDs", "setting": "[1]", "value": "8.63 ± 0.2", "unit": "mm"}, {"measurement": "LVPWd", "setting": "[1]", "value": "1.84 ± 0.04", "unit": "mm"}, {"measurement": "LVPWs", "setting": "[1]", "value": "2.94 ± 0.05", "unit": "mm"}, {"measurement": "SV", "setting": "[1]", "value": "0.41 ± 0.01", "unit": "mL"}, {"measurement": "CO", "setting": "[2]", "value": "125.4 ± 3.8", "unit": "mL/min"}, {"measurement": "EF B-mode", "setting": "[2]", "value": "45.55 ± 0.7", "unit": "%"}, {"measurement": "EF M-mode", "setting": "[2]", "value": "46.22 ± 0.7", "unit": "%"}, {"measurement": "FS", "setting": "[2]", "value": "20.46 ± 0.4", "unit": "%"}, {"measurement": "IVRT", "setting": "[2]", "value": "20.87 ± 0.3", "unit": "ms"}, {"measurement": "LVIDd", "setting": "[2]", "value": "10.94 ± 0.1", "unit": "mm"}, {"measurement": "LVIDs", "setting": "[2]", "value": "8.71 ± 0.1", "unit": "mm"}, {"measurement": "LVPWd", "setting": "[2]", "value": "1.63 ± 0.1", "unit": "mm"}, {"measurement": "LVPWs", "setting": "[2]", "value": "2.73 ± 0.05", "unit": "mm"}, {"measurement": "SV", "setting": "[2]", "value": "0.40 ± 0.02", "unit": "mL"}, {"measurement": "cardiac output", "setting": "[3]", "value": "significant improvements"}, {"measurement": "ejection fraction", "setting": "[3]", "value": "significant improvements"}, {"measurement": "fractional shortening", "setting": "[3]", "value": "significant improvements"}, {"measurement": "stroke volume", "setting": "[3]", "value": "significant improvements"}, {"measurement": "Heart rate", "setting": "30 nmol/kg", "value": "348.8 ± 6.7", "unit": "bpm"}, {"measurement": "Mean blood pressure", "setting": "30 nmol/kg", "value": "109.9 ± 4.0", "unit": "mmHg"}, {"measurement": "Heart rate", "setting": "100 nmol/kg", "value": "353.2 ± 9.1", "unit": "bpm"}, {"measurement": "Mean blood pressure", "setting": "100 nmol/kg", "value": "112.6 ± 4.3", "unit": "mmHg"}, {"measurement": "muscle mass", "setting": "at termination", "value": "significant increase"}, {"measurement": "Body weight at termination", "setting": "compared to MI-Vehicle", "value": "weighed significantly more"}]}]}
